Data as given in the supplement of paper PMC4862054.

Experiments:
Details in all cases: incubation time: 72 h
CAL-51 [1] = assay: normalised viability (% of control), CellTiter-Blue; higher = more viable cells (about 100 = DMSO control)
Procedure, shortened: (§1)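 Normalised viability is given for a single listed concentration of the series. In 384-well plates, breast cancer cell lines were incubated 72 h with compound, then read with CellTiter-Blue (2 h, 37 °C) at 560/590 nm. Per-plate scaling set vehicle to 100 and a positive kill control to 0, with Z'-factor quality control.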

DU-4475 [2] = assay: as above
Procedure, shortened: as §1

HDQ-P1 [3] = assay: as above
Procedure, shortened: as §1

CAL-51 [4] = assay: drug sensitivity score (DSS), CellTiter-Blue viability (DSS (AUC-based score)); higher = stronger viability inhibition; extreme values may be limits of the assay
Method: (§2)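 DSRT with the CellTiter-Blue (resazurin reduction) viability readout, fluorescence 560/590 nm, 72 h incubation. Plates were normalised to DMSO and benzethonium chloride controls. DSS is computed from the area under the fitted dose-response curve (5 or 9 concentrations).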

MDA-MB-453 [5] = assay: as above
Method: as §2

BT-474 = assay: drug sensitivity score (DSS), CellTox Green (DSS (AUC-based score)); higher = stronger drug effect (viability inhibition or cytotoxicity); extreme values may be limits of the assay
Procedure, shortened: (§3)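 The drug sensitivity score was computed from the area under the fitted dose-response curve. Breast cancer cell lines in 20 µl suspension went into 384-well plates holding compound at 5 concentrations (10-fold steps over a 10,000-fold, compound-specific range) for 72 h of incubation. CellTox Green fluorescence (485/520 nm) was read before CellTiter-Glo luminescence, the latter after 10 min at room temperature, and each plate was normalised to 0.1 % DMSO and a positive kill control.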

BT-549 = assay: as above
Procedure, shortened: as §3

CAL-120 = assay: as above
Procedure, shortened: as §3

CAL-148 = assay: as above
Procedure, shortened: as §3

CAL-51 [6] = assay: as above
Procedure, shortened: as §3

CAL-85-1 = assay: as above
Procedure, shortened: as §3

DU-4475 [7] = assay: as above
Procedure, shortened: as §3

HCC1143 = assay: as above
Procedure, shortened: as §3

HCC1599 = assay: as above
Procedure, shortened: as §3

HCC1937 = assay: as above
Procedure, shortened: as §3

HDQ-P1 [8] = assay: as above
Procedure, shortened: as §3

Hs578T = assay: as above
Procedure, shortened: as §3

MCF-10A = assay: as above
Procedure, shortened: as §3

MDA-MB-231 = assay: as above
Procedure, shortened: as §3

MDA-MB-436 = assay: as above
Procedure, shortened: as §3

MDA-MB-453 [9] = assay: as above
Procedure, shortened: as §3

MDA-MB-468 = assay: as above
Procedure, shortened: as §3

MFM-223 = assay: as above
Procedure, shortened: as §3

CC[C@@H]1C(=O)N(C)c2cnc(Nc3ccc(C(=O)NC4CCN(C)CC4)cc3OC)nc2N1C1CCCC1 [BI 2536]
normalised viability (CAL-51 [1]; 30 nM): 25.8%
normalised viability (DU-4475 [2]; 30 nM): 18.1%
normalised viability (HDQ-P1 [3]; 30 nM): 43.6%
drug sensitivity score (CAL-51 [4]): 20.7
drug sensitivity score (MDA-MB-453 [5]): 23
drug sensitivity score (BT-474): 0
drug sensitivity score (BT-549): 0
drug sensitivity score (CAL-120): 1.97
drug sensitivity score (CAL-148): 0
drug sensitivity score (CAL-51 [6]): 16.7
drug sensitivity score (CAL-85-1): 10.3
drug sensitivity score (DU-4475 [7]): 0
drug sensitivity score (HCC1143): 0
drug sensitivity score (HCC1599): 0
drug sensitivity score (HCC1937): 0
drug sensitivity score (HDQ-P1 [8]): 0
drug sensitivity score (Hs578T): 4.87
drug sensitivity score (MCF-10A): 10.3
drug sensitivity score (MDA-MB-231): 9.92
drug sensitivity score (MDA-MB-436): 0
drug sensitivity score (MDA-MB-453 [9]): 0
drug sensitivity score (MDA-MB-468): 0
drug sensitivity score (MFM-223): 6.01

C=CC(=O)Nc1cc2c(Nc3ccc(F)c(Cl)c3)ncnc2cc1OCCCN1CCOCC1 [Canertinib]
normalised viability (CAL-51 [1]; 300 nM): 104%
normalised viability (DU-4475 [2]; 300 nM): 93.3%
normalised viability (HDQ-P1 [3]; 300 nM): 32.4%
drug sensitivity score (CAL-51 [4]): 3.66
drug sensitivity score (MDA-MB-453 [5]): 15.9
drug sensitivity score (BT-474): 3.65
drug sensitivity score (BT-549): 0.986
drug sensitivity score (CAL-120): 2.34
drug sensitivity score (CAL-148): 0
drug sensitivity score (CAL-51 [6]): 5.83
drug sensitivity score (CAL-85-1): 8.99
drug sensitivity score (DU-4475 [7]): 0
drug sensitivity score (HCC1143): 0
drug sensitivity score (HCC1599): 0
drug sensitivity score (HCC1937): 0
drug sensitivity score (HDQ-P1 [8]): 3.34
drug sensitivity score (Hs578T): 6.15
drug sensitivity score (MCF-10A): 8.86
drug sensitivity score (MDA-MB-231): 3.46
drug sensitivity score (MDA-MB-436): 0
drug sensitivity score (MDA-MB-453 [9]): 0
drug sensitivity score (MDA-MB-468): 5.52
drug sensitivity score (MFM-223): 2.12

O=C(O)C1(C(=O)O)CCC1.[NH2-].[NH2-].[Pt+2] [Carboplatin]
normalised viability (CAL-51 [1]; 300 nM): 106%
normalised viability (DU-4475 [2]; 300 nM): 87.6%
normalised viability (HDQ-P1 [3]; 300 nM): 87.6%
drug sensitivity score (CAL-51 [4]): 1.03
drug sensitivity score (MDA-MB-453 [5]): 1.79
drug sensitivity score (BT-474): 0
drug sensitivity score (BT-549): 1.73
drug sensitivity score (CAL-120): 0
drug sensitivity score (CAL-148): 0
drug sensitivity score (CAL-51 [6]): 0
drug sensitivity score (CAL-85-1): 0
drug sensitivity score (DU-4475 [7]): 0
drug sensitivity score (HCC1143): 0
drug sensitivity score (HCC1599): 0
drug sensitivity score (HCC1937): 0
drug sensitivity score (HDQ-P1 [8]): 0
drug sensitivity score (Hs578T): 0
drug sensitivity score (MCF-10A): 0
drug sensitivity score (MDA-MB-231): 0
drug sensitivity score (MDA-MB-436): 0
drug sensitivity score (MDA-MB-453 [9]): 0
drug sensitivity score (MDA-MB-468): 0
drug sensitivity score (MFM-223): 0

COc1cc2c(Oc3ccc4[nH]c(C)cc4c3F)ncnc2cc1OCCCN1CCCC1 [Cediranib]
normalised viability (CAL-51 [1]; 30 nM): 86%
normalised viability (DU-4475 [2]; 30 nM): 95%
normalised viability (HDQ-P1 [3]; 30 nM): 72.9%
drug sensitivity score (CAL-51 [4]): 0
drug sensitivity score (MDA-MB-453 [5]): 0
drug sensitivity score (BT-474): 0
drug sensitivity score (BT-549): 0
drug sensitivity score (CAL-120): 0
drug sensitivity score (CAL-148): 0
drug sensitivity score (CAL-51 [6]): 0
drug sensitivity score (CAL-85-1): 1.23
drug sensitivity score (DU-4475 [7]): 0
drug sensitivity score (HCC1143): 0
drug sensitivity score (HCC1599): 0
drug sensitivity score (HCC1937): 0
drug sensitivity score (HDQ-P1 [8]): 0
drug sensitivity score (Hs578T): 0
drug sensitivity score (MCF-10A): 0
drug sensitivity score (MDA-MB-231): 0
drug sensitivity score (MDA-MB-436): 0
drug sensitivity score (MDA-MB-453 [9]): 0
drug sensitivity score (MDA-MB-468): 0
drug sensitivity score (MFM-223): 0

Nc1ccccc1NC(=O)c1ccc(CNC(=O)OCc2cccnc2)cc1 [Entinostat]
normalised viability (CAL-51 [1]; 300 nM): 114%
normalised viability (DU-4475 [2]; 300 nM): 97.9%
normalised viability (HDQ-P1 [3]; 300 nM): 72%
drug sensitivity score (CAL-51 [4]): 1.7
drug sensitivity score (MDA-MB-453 [5]): 5.77
drug sensitivity score (BT-474): 0
drug sensitivity score (BT-549): 0
drug sensitivity score (CAL-120): 0
drug sensitivity score (CAL-148): 1.86
drug sensitivity score (CAL-51 [6]): 7.91
drug sensitivity score (CAL-85-1): 4.07
drug sensitivity score (DU-4475 [7]): 0
drug sensitivity score (HCC1143): 0
drug sensitivity score (HCC1599): 0
drug sensitivity score (HCC1937): 1.35
drug sensitivity score (HDQ-P1 [8]): 0
drug sensitivity score (Hs578T): 0
drug sensitivity score (MCF-10A): 0
drug sensitivity score (MDA-MB-231): 1.91
drug sensitivity score (MDA-MB-436): 4.39
drug sensitivity score (MDA-MB-453 [9]): 0
drug sensitivity score (MDA-MB-468): 11.1
drug sensitivity score (MFM-223): 1.09

Nc1nc(F)nc2c1ncn2[C@@H]1O[C@H](CO)[C@@H](O)[C@@H]1O [Fludarabine]
normalised viability (CAL-51 [1]; 300 nM): 103%
normalised viability (DU-4475 [2]; 300 nM): 100%
normalised viability (HDQ-P1 [3]; 300 nM): 75.3%
drug sensitivity score (CAL-51 [4]): 0
drug sensitivity score (MDA-MB-453 [5]): 0
drug sensitivity score (BT-474): 0
drug sensitivity score (BT-549): 0
drug sensitivity score (CAL-120): 0
drug sensitivity score (CAL-148): 0
drug sensitivity score (CAL-51 [6]): 0
drug sensitivity score (CAL-85-1): 0
drug sensitivity score (DU-4475 [7]): 0
drug sensitivity score (HCC1143): 0
drug sensitivity score (HCC1599): 0
drug sensitivity score (HCC1937): 0
drug sensitivity score (HDQ-P1 [8]): 0
drug sensitivity score (Hs578T): 0
drug sensitivity score (MCF-10A): 0
drug sensitivity score (MDA-MB-231): 0
drug sensitivity score (MDA-MB-436): 0
drug sensitivity score (MDA-MB-453 [9]): 0
drug sensitivity score (MDA-MB-468): 0

O=C(Cc1ccc(-c2ccc(OCCN3CCOCC3)cc2)cn1)NCc1ccccc1 [KX2-391]
normalised viability (CAL-51 [1]; 300 nM): 13.9%
normalised viability (DU-4475 [2]; 300 nM): 9.43%
normalised viability (HDQ-P1 [3]; 300 nM): 46.6%
drug sensitivity score (CAL-51 [4]): 24.2
drug sensitivity score (MDA-MB-453 [5]): 21.5
drug sensitivity score (BT-474): 3.97
drug sensitivity score (BT-549): 0
drug sensitivity score (CAL-120): 1.54
drug sensitivity score (CAL-148): 0
drug sensitivity score (CAL-51 [6]): 20.3
drug sensitivity score (CAL-85-1): 17.3
drug sensitivity score (DU-4475 [7]): 0
drug sensitivity score (HCC1143): 0
drug sensitivity score (HCC1599): 3.99
drug sensitivity score (HCC1937): 3.38
drug sensitivity score (HDQ-P1 [8]): 4.28
drug sensitivity score (Hs578T): 11.4
drug sensitivity score (MCF-10A): 15.5
drug sensitivity score (MDA-MB-231): 0
drug sensitivity score (MDA-MB-436): 4.73
drug sensitivity score (MDA-MB-453 [9]): 0
drug sensitivity score (MDA-MB-468): 30.1
drug sensitivity score (MFM-223): 13.2
